According to paper PMC6704710, “Preclinical evaluation of 3D185, a novel potent inhibitor of FGFR1/2/3 and CSF-1R, in FGFR-dependent and macrophage-dominant cancer models” (Journal of Experimental & Clinical Cancer Research : CR, 2019):

Assays:
CaMKI(h) = target: T1, CaMKI(h) (Homo sapiens, UniProt Q14012); assay: Eurofins kinase panel; assay type: biochemical; details: read-out: Inhibition rate (%)
T1 construct: purchased Eurofins (KinaseProfiler)

CDK9/cyclin T1(h) = target: T2, CDK9/cyclin T1(h) (Homo sapiens, UniProt P50750); assay: Eurofins kinase panel; assay type: biochemical; details: read-out: Inhibition rate (%)
T2 construct: purchased Eurofins (KinaseProfiler)
T2 sequence (P50750 whole entry): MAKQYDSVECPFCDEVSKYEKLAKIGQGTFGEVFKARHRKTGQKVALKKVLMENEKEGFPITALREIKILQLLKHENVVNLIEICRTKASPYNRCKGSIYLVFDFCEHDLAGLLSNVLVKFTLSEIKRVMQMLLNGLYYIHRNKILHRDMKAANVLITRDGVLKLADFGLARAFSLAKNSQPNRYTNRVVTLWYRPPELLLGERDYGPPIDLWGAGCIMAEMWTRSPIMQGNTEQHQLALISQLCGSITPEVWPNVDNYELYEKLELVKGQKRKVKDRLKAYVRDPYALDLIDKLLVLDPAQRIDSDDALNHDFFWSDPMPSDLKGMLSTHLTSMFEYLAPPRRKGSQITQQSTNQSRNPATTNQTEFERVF
T2 sequence (O60563 whole entry partner): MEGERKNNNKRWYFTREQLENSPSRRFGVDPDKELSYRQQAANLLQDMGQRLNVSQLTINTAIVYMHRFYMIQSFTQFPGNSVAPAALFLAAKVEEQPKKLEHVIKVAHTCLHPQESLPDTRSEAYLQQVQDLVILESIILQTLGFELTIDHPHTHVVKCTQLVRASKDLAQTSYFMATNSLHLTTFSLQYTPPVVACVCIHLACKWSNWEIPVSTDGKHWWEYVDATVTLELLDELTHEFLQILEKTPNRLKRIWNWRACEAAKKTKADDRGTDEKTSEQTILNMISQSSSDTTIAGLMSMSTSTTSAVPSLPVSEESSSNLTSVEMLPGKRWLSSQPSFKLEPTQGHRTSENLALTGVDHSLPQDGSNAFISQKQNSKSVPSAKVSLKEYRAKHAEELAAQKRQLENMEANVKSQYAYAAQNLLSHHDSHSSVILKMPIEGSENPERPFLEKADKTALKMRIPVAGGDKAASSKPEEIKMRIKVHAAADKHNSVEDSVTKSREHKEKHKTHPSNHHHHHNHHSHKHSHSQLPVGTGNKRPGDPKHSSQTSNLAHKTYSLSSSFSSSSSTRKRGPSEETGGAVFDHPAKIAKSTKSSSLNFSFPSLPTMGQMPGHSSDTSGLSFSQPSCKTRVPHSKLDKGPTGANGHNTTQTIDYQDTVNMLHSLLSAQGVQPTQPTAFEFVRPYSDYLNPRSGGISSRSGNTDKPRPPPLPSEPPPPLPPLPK

M-NFS-60 = assay: Cell proliferation assay; assay type: cell-based, mouse; details: Mus musculus; 72 h, mean ± SD
Protocol: (§1) The cancer cell lines indicated in Figure 3 were seeded in 96-well plates at a low density in growth medium. The next day, appropriate controls or the designated concentrations of the compounds were added to each well, and the cells were incubated for 72 h. HUVECs (passage 3) were seeded in 96-well plates in growth medium overnight and transferred to serum-free medium for 24 h. The following day, appropriate controls or the designated concentrations of the compounds were added to each well, and 100 ng/mL growth factor (bFGF or VEGF) was added to the indicated wells. The cells were incubated for 48 h. Finally, cell proliferation was determined using a sulforhodamine B (SRB) assay or a cell counting kit-8 (CCK-8) assay. […] IC50 values for proliferation curves were calculated using a 4-parameter logistic nonlinear regression model with SoftMax Pro Software (Molecular Devices, San Jose, USA).

[1] = test system: NCI-H1581 subcutaneous xenograft; assay type: in vivo; details: 50 mg/kg oral once daily 14 days
Protocol: […]. When the tumor volume reached 100–150 mm^3, the mice were randomly assigned to the vehicle control group (n = 12) or a treatment group (n = 6 per group). […].
The tumors were measured twice per week using a microcaliper. Tumor volume (TV) was calculated as follows: TV = (length × width^2)/2. In addition, the individual relative tumor volume (RTV) was calculated as follows: RTV = Vt / V0, where Vt is the volume on a particular day and V0 is the volume at the beginning of the treatment. The RTV is shown on the indicated days as the […] ± SEM for the indicated groups of mice. […]

EBC-1 = assay: Cell proliferation assay; assay type: cell-based; details: Homo sapiens, Fig. 2G
Protocol: as §1

HCC78 = assay: Cell proliferation assay; assay type: cell-based; details: Homo sapiens, Fig. 2G
Protocol: as §1

NCI-H520 = assay: Cell proliferation assay; assay type: cell-based; details: Homo sapiens, Fig. 2G
Protocol: as §1

T47D = assay: Cell proliferation assay; assay type: cell-based; details: Homo sapiens, Fig. 2G
Protocol: as §1

BGC-823 = assay: Cell proliferation assay; assay type: cell-based; details: Homo sapiens, Fig. 2G
Protocol: as §1

MDA-MB-453 = assay: Cell proliferation assay; assay type: cell-based; details: Homo sapiens, Fig. 2G
Protocol: as §1

HCC1954 = assay: Cell proliferation assay; assay type: cell-based; details: Homo sapiens, Fig. 2G
Protocol: as §1

MCF-7 = assay: Cell proliferation assay; assay type: cell-based; details: Homo sapiens, MCF7; Fig. 2G
Protocol: as §1

NCI-H1299 = assay: Cell proliferation assay; assay type: cell-based; details: Homo sapiens, Fig. 2G
Protocol: as §1

SK-BR-3 = assay: Cell proliferation assay; assay type: cell-based; details: Homo sapiens, Fig. 2G
Protocol: as §1

SGC-7901 = assay: Cell proliferation assay; assay type: cell-based; details: Homo sapiens, Fig. 2G
Protocol: as §1

NCI-H1975 = assay: Cell proliferation assay; assay type: cell-based; details: Homo sapiens, Fig. 2G
Protocol: as §1

NCI-H460 = assay: Cell proliferation assay; assay type: cell-based; details: Homo sapiens, Fig. 2G
Protocol: as §1

HCC366 = assay: Cell proliferation assay; assay type: cell-based; details: Homo sapiens, Fig. 2G
Protocol: as §1

NCI-H2444 = assay: Cell proliferation assay; assay type: cell-based; details: Homo sapiens, Fig. 2G
Protocol: as §1

MKN45 = assay: Cell proliferation assay; assay type: cell-based; details: Homo sapiens, MKN-45; Fig. 2G
Protocol: as §1

MKN28 = assay: Cell proliferation assay; assay type: cell-based; details: Homo sapiens, MKN-28; Fig. 2G
Protocol: as §1

CAL51 = assay: Cell proliferation assay; assay type: cell-based; details: Homo sapiens, CAL-51; Fig. 2G
Protocol: as §1

MKN1 = assay: Cell proliferation assay; assay type: cell-based; details: Homo sapiens, MKN-1; Fig. 2G
Protocol: as §1

A375 = assay: Cell proliferation assay; assay type: cell-based; details: Homo sapiens, A-375; Fig. 2G
Protocol: as §1

WNK3(h) = target: T3, WNK3(h) (Homo sapiens, UniProt Q9BYP7); assay: Eurofins kinase panel; assay type: biochemical; details: read-out: Inhibition rate (%)
T3 construct: purchased Eurofins (KinaseProfiler)
T3 sequence (Q9BYP7 whole entry): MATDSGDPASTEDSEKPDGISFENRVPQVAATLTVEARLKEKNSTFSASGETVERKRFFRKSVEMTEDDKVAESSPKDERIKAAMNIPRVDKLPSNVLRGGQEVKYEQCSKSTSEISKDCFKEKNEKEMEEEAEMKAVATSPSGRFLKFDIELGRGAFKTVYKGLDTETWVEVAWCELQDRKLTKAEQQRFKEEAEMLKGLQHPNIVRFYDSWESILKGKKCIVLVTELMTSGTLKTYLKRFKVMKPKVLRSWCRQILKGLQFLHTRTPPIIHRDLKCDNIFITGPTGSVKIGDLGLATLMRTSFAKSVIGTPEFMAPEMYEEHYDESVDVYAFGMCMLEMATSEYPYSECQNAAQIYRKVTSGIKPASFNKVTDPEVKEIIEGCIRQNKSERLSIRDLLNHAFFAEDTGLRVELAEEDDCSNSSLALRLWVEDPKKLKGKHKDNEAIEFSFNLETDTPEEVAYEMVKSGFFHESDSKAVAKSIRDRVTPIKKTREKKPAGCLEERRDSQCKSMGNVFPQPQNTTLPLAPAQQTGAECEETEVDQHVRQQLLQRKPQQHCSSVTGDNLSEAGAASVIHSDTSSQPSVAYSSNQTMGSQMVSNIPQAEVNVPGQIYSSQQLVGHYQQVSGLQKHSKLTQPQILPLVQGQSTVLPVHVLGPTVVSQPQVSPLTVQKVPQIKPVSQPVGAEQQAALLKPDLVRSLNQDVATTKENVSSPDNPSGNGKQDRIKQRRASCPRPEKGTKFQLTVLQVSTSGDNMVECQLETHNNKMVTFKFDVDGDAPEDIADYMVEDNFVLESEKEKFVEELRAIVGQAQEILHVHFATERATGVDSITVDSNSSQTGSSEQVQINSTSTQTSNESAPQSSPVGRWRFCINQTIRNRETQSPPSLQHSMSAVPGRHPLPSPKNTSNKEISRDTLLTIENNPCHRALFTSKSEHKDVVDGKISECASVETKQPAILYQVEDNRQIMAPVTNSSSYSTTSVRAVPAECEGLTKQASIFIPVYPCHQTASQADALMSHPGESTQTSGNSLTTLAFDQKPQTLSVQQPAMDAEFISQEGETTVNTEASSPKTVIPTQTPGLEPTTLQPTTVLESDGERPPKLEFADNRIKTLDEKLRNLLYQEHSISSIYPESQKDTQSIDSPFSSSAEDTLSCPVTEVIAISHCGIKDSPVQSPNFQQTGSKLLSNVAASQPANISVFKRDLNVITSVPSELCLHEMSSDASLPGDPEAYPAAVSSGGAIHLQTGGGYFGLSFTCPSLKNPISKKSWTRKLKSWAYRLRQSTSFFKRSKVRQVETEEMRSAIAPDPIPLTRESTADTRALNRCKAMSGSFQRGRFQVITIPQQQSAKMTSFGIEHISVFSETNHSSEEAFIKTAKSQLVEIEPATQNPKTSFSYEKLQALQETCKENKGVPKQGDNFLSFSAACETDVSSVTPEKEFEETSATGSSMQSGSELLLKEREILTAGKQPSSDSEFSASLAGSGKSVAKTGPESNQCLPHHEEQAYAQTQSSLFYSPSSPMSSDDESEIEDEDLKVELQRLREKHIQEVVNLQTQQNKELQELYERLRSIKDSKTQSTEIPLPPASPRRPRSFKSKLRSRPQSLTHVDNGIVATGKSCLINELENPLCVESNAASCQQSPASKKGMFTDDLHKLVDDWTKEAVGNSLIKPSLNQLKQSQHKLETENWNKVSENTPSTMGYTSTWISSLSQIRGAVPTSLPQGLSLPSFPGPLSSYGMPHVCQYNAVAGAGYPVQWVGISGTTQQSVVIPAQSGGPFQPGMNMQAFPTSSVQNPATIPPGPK

IKKε(h) = target: T4, IKKε(h) (Homo sapiens, UniProt Q14164); assay: Eurofins kinase panel; assay type: biochemical; details: read-out: Inhibition rate (%)
T4 construct: purchased Eurofins (KinaseProfiler)
T4 sequence (Q14164 1-716): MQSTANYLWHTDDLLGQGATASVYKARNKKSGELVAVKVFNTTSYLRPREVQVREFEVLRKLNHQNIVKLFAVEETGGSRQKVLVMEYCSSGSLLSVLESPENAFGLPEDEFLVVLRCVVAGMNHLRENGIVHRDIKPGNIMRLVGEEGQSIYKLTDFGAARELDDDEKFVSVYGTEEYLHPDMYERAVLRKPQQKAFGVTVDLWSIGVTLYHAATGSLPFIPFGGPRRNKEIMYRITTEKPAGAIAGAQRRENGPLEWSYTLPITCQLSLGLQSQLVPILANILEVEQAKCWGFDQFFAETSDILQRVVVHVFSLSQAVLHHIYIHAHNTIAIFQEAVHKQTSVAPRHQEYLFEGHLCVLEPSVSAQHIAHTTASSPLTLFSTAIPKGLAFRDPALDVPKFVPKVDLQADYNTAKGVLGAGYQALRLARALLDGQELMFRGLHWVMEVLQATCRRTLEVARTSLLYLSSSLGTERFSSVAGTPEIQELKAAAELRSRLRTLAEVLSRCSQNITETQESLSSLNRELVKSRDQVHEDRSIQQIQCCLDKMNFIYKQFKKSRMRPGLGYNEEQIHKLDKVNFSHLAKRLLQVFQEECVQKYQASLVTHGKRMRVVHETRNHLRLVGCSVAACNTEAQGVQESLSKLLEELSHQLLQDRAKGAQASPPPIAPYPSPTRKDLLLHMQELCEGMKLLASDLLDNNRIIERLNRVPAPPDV

T1 sequence (Q14012 whole entry): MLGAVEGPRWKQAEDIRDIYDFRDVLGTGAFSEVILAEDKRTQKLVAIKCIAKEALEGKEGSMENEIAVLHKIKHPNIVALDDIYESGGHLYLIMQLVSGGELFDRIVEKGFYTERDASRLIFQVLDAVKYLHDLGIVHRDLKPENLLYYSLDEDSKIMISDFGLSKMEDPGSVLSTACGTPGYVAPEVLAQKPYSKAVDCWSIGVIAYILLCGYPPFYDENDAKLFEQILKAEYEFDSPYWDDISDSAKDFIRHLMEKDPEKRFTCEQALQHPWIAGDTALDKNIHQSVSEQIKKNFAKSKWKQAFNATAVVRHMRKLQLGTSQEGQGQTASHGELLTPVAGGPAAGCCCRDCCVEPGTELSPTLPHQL

`COc1cc(OC)c(Cl)c(-c2ccc3c(NC(=O)c4ccc(N5CCNC(C)(C)C5)cc4)n[nH]c3n2)c1Cl` [3D185] showed an inhibition at 0.01 µM (CaMKI(h); 10 nM) of 11%, an inhibition at 0.1 µM (CaMKI(h); 100 nM) of 14% and an inhibition at 1 µM (CaMKI(h); 1000 nM) of 64%. It also gave an inhibition at 0.01 µM (CDK9/cyclin T1(h); 10 nM) of -12%, an inhibition at 0.1 µM (CDK9/cyclin T1(h); 100 nM) of 0% and an inhibition at 1 µM (CDK9/cyclin T1(h); 1000 nM) of 4%. The IC50 (M-NFS-60) was 16.7 ± 2.5 nM, the “tumor growth inhibition rate” value [1] was 96.4% and the IC50 (EBC-1) was > 1000 nM. The IC50 (HCC78) was > 1000 nM, the IC50 (NCI-H520) was > 1000 nM and the IC50 (T47D) was > 1000 nM. For the same compound, the IC50 (BGC-823) was > 1000 nM, the IC50 (MDA-MB-453) was > 1000 nM and the IC50 (HCC1954) was > 1000 nM. For the same compound, the IC50 (MCF-7) was > 1000 nM, the IC50 (NCI-H1299) was > 1000 nM and the IC50 (SK-BR-3) was > 1000 nM. The IC50 (SGC-7901) was > 1000 nM, the IC50 (NCI-H1975) was > 1000 nM and the IC50 (NCI-H460) was > 1000 nM. The IC50 (HCC366) was > 1000 nM, the IC50 (NCI-H2444) was > 1000 nM and the IC50 (MKN45) was > 1000 nM. The IC50 (MKN28) was > 1000 nM, the IC50 (CAL51) was > 1000 nM and the IC50 (MKN1) was > 1000 nM. For the same compound, the IC50 (A375) was > 1000 nM, the inhibition at 0.01 µM (WNK3(h); 10 nM) was -7% and the inhibition at 0.1 µM (WNK3(h); 100 nM) was 12%. The inhibition at 1 µM (WNK3(h); 1000 nM) was 71%, the inhibition at 0.01 µM (IKKε(h); 10 nM) was -4% and the inhibition at 0.1 µM (IKKε(h); 100 nM) was 2%. For the same compound, the inhibition at 1 µM (IKKε(h); 1000 nM) was 5%.
